# Tests used:
# [1] = Metabolic stability in mouse liver microsomes assessed as half life preincubated for 5 mins followed by NADPH addition and measured upto 60 mins by LC-MS/MS analysis; format: ADME, Microsome; settings: time < 65 min
# [2] = Metabolic stability in human liver microsomes assessed as half life preincubated for 5 mins followed by NADPH addition and measured upto 60 mins by LC-MS/MS analysis; format: ADME, Microsome; settings: time < 65 min
# [3] = MRT (0 to t) in male C57BL/6 mouse at 30 mg/kg, ip measured upto 1440 mins by LC-MS/MS analysis; format: ADME, organism-based; settings: in vivo
# [4] = Drug distribution in C57BL/6 mouse plasma at 30 mg/kg, ip measured after 2 hrs by LC-MS/MS analysis; format: ADME, organism-based
# [5] = AUC (0 to t) in male C57BL/6 mouse at 30 mg/kg, ip measured upto 1440 mins by LC-MS/MS analysis; format: ADME, organism-based; settings: in vivo
# [6] = Drug distribution in C57BL/6 mouse colon at 30 mg/kg, ip measured after 2 hrs by LC-MS/MS analysis; format: ADME, organism-based; settings: read-out: Drug uptake
# [7] = Drug distribution in C57BL/6 mouse plasma at 30 mg/kg, ip measured after 0.5 hrs by LC-MS/MS analysis; format: ADME, organism-based
# [8] = Cmax in male C57BL/6 mouse at 30 mg/kg, ip measured upto 1440 mins by LC-MS/MS analysis; format: ADME, organism-based; settings: in vivo
# [9] = Half life in male C57BL/6 mouse at 30 mg/kg, ip measured upto 1440 mins by LC-MS/MS analysis; format: ADME, organism-based; settings: in vivo
# [10] = Drug distribution in C57BL/6 mouse colon at 30 mg/kg, ip measured after 24 hrs by LC-MS/MS analysis; format: ADME, organism-based; settings: read-out: Drug uptake
# [11] = Tmax in male C57BL/6 mouse at 30 mg/kg, ip measured upto 1440 mins by LC-MS/MS analysis; format: ADME, organism-based; settings: in vivo
# [12] = Apparent oral clearance in male C57BL/6 mouse at 30 mg/kg, ip measured upto 1440 mins by LC-MS/MS analysis; format: ADME, organism-based; settings: in vivo, read-out: CLz/F (converted)
# [13] = Drug distribution in C57BL/6 mouse colon at 30 mg/kg, ip measured after 8 hrs by LC-MS/MS analysis; format: ADME, organism-based; settings: read-out: Drug uptake
# [14] = Drug distribution in C57BL/6 mouse colon at 30 mg/kg, ip measured after 0.5 hrs by LC-MS/MS analysis; format: ADME, organism-based; settings: read-out: Drug uptake
Compound,half-life [1],half-life [2],further results
C=C1C(=O)O[C@@H]2C[C@@]3(C)CC[C@@H](OC(=O)c4cc(Cl)cnc4Cl)C(=C)[C@@H]3C[C@H]12,12.6 min,95.7 min,
C=C1C(=O)O[C@@H]2C[C@@]3(C)CCCC(=C)[C@@H]3C[C@H]12 [ISOALANTOLACTONE],9.1 min,4.47 min,MRT last at 24 h [3]: 110 min; concentration at 2 h [4]: 7.71 ng/mL; AUC(0-t) at 24 h [5]: 230 ng·h/mL; concentration at 2 h [6]: 293 ng/g; concentration at 0.5 h [7]: 27.4 ng/mL; Cmax [8]: 159 ng/mL; half-life [9]: 127 min; concentration at 24 h [10]: 26.9 ng/g; Tmax [11]: 13.2 min; CL/F [12]: 2020 mL/min/kg; concentration at 8 h [13]: 3120 ng/g; concentration at 0.5 h [14]: 3320 ng/g
C=C1C(=O)O[C@@H]2C[C@@]3(C)CC[C@@H](OC(=O)c4c(Cl)ccnc4Cl)C(=C)[C@@H]3C[C@H]12,47.1 min,118 min,

# Second part, led by results:
half-life [1],half-life [2],Compound,further results
27.2 min,20.6 min,C=C1C(=O)O[C@@H]2C[C@@]3(C)CC[C@@H](OC(=O)/C=C/C(=O)c4ccc(C(F)(F)F)cc4)C(=C)[C@@H]3C[C@H]12,
44.1 min,31.1 min,C=C1C(=O)O[C@@H]2C[C@@]3(C)CC[C@@H](OC(=O)/C=C/C(=O)c4ccc(F)cc4)C(=C)[C@@H]3C[C@H]12,
19.2 min,10.4 min,C=C1C(=O)O[C@@H]2C[C@@]3(C)CC[C@@H](OC(=O)/C=C/C(=O)c4ccccc4)C(=C)[C@@H]3C[C@H]12,

# Reference: ChEMBL document CHEMBL5543172, “Novel Isoalantolactone-Based Derivatives as Potent NLRP3 Inflammasome Inhibitors: Design, Synthesis, and Biological Characterization” (J Med Chem, 2024)
